Data on eight compounds can be found in patent US9409908B2 (priority 2012, dated 2016).

pKi: −log10 of the molar value. Counter-ions that a name gives are not always drawn. Bounds are passed on as bounds.

In assay [1] the target is purified human plasma kallikrein (Homo sapiens (Human), UniProt P03952). In words: biochemical. The class given is biochemical. The note with it: read-out: Plasma Kallikrein Ki.
For assay [2], the target named is purified human Factor XIa (Homo sapiens (Human), UniProt P03951). In words: biochemical. The class given is biochemical. The note with it: read-out: Factor XIa Ki.
purified human Factor XIa, sequence (P03951 whole entry, looked up): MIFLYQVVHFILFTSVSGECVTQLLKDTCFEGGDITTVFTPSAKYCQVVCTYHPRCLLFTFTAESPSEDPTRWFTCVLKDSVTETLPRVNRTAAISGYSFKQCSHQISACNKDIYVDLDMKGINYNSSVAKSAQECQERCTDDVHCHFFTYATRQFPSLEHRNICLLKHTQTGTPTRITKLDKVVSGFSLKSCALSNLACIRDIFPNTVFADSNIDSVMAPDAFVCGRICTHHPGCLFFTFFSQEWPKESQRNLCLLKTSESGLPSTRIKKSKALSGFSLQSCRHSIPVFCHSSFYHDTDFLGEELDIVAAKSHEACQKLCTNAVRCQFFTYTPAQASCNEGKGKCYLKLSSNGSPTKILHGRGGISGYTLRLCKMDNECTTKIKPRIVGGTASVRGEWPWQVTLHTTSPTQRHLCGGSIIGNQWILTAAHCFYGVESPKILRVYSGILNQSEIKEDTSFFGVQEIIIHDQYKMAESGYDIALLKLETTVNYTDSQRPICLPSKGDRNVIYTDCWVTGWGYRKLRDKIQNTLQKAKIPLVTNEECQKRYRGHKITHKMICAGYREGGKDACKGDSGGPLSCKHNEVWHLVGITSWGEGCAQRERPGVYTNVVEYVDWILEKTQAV
purified human Factor XIa, sequence (P03951 whole entry partner, looked up): as the sequence (P03951 whole entry, looked up) above

purified human plasma kallikrein, sequence (P03952 whole entry, looked up): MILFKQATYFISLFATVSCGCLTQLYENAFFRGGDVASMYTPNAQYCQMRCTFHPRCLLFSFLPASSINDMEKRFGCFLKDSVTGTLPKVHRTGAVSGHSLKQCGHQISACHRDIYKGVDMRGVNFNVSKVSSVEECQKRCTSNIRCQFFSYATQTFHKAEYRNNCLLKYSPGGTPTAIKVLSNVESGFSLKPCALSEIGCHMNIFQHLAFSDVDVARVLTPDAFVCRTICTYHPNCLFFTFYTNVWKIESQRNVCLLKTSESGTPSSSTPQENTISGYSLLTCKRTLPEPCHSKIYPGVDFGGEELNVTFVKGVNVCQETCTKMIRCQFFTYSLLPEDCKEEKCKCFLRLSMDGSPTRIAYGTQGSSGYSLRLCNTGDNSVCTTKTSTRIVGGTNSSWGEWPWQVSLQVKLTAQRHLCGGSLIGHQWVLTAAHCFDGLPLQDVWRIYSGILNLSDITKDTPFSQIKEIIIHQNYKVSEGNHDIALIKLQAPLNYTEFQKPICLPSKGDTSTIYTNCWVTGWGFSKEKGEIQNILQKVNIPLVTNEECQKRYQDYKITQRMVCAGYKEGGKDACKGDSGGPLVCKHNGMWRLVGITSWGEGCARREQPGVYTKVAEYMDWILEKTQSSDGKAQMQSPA
purified human plasma kallikrein, sequence (P03952 whole entry partner, looked up): as the sequence (P03952 whole entry, looked up) above

`C[C@@H]1CCC[C@H](N2CCC(c3c(F)ccc(Cl)c3F)=CC2=O)c2cc(ccn2)-c2ccc(NC(=O)OCCO)cc2NC1=O` [Example 54, 2-Hydroxyethyl N-[(10R,14S)-14-[4-(3-chloro-2,6-difluorophenyl)-6-oxo-1,2,3,6-tetrahydropyridin-1-yl]-10-methyl-9-oxo-8,16-diazatricyclo[13.3.1.0^2,7]nonadeca-1(19),2,4,6,15,17-hexaen-5-yl]carbamate, TFA salt]: the results for the pKi in assay [1] and in assay [2] were 9.00 and 10.10, respectively.
In the case of `C[C@@H]1CCC[C@H](N2CCC(c3cc(Cl)ccc3-n3cncn3)=CC2=O)c2cc(ccn2)-c2ccccc2NC1=O` [Example 71, (10R,14S)-14-{4-[5-Chloro-2-(1H-1,2,4-triazol-1-yl)phenyl]-6-oxo-1,2,3,6-tetrahydropyridin-1-yl}-10-methyl-8,16-diazatricyclo[13.3.1.0^2,7]nonadeca-1(19),2(7),3,5,15,17-hexaen-9-one, TFA salt], the pKi is 7.22 in assay [1] and 8.77 in assay [2].
Taken in the same sequence, the figures for `COC(=O)Nc1ccc2c(c1)NC(=O)[C@H](C)CCC[C@H](n1ncc(-c3c(C#N)ccc(Cl)c3F)cc1=O)c1cc-2ccn1` [Example 79, Methyl N-[(10R,14S)-14-[4-(3-chloro-6-cyano-2-fluorophenyl)-6-oxo-1,6-dihydropyridazin-1-yl]-10-methyl-9-oxo-8,16-diazatricyclo[13.3.1.0^2,7]nonadeca-1(19),2(7),3,5,15,17-hexaen-5-yl]carbamate, TFA salt] were 8.52 and 9.26.
As for `C[C@@H]1CCC[C@H](N2CCC(c3c(F)ccc(Cl)c3F)=CC2=O)c2cc(ccn2)-c2c(F)cc(F)cc2NC1=O` [Example 201, (10R,14S)-14-[4-(3-chloro-2,6-difluorophenyl)-6-oxo-1,2,3,6-tetrahydropyridin-1-yl]-3,5-difluoro-10-methyl-8,16-diazatricyclo[13.3.1.0^2,7]nonadeca-1(19),2(7),3,5,15,17-hexaen-9-one, TFA salt], the pKi in assay [1] was 6.98; in assay [2] it was 7.30.
Consider `COC(=O)Nc1ccc2c(c1)NC(=O)[C@H](C)CCC[C@H](N1CCC(c3c(C(F)(F)F)ccc(Cl)c3F)=CC1=O)c1cc-2ccn1` [Example 25, Methyl N-[(10R,14S)-14-{4-[3-chloro-2-fluoro-6-(trifluoromethyl)phenyl]-6-oxo-1,2,3,6-tetrahydropyridin-1-yl}-10-methyl-9-oxo-8,16-diazatricyclo[13.3.1.0^2,7]nonadeca-1(19),2,4,6,15,17-hexaen-5-yl]carbamate, TFA salt], for which the pKi is 7.92 in assay [1] and 10.00 in assay [2].
Taken in the same sequence, the figures for `COC(=O)Nc1ccc2c(c1)NC(=O)[C@H](C)CCC[C@H](N1CCC(c3ccc(OC)cc3)=CC1=O)c1cc-2ccn1` [Example 117, Methyl N-[(10R,14S)-14-[4-(4-methoxyphenyl)-6-oxo-1,2,3,6-tetrahydropyridin-1-yl]-10-methyl-9-oxo-8,16-diazatricyclo[13.3.1.0^2,7]nonadeca-1(18),2,4,6,15(19),16-hexaen-5-yl]carbamate] were less than 4.89 and less than 6.40.
Taken in the same sequence, the figures for `CC(=O)NC(=S)Nc1ccc2c(c1)NC(=O)[C@H](C)CCC[C@H](N1CCC(c3c(F)ccc(Cl)c3F)=CC1=O)c1cc-2ccn1` [Example 63, 3-Acetyl-1-[(10R,14S)-14-[4-(3-chloro-2,6-difluorophenyl)-6-oxo-1,2,3,6-tetrahydropyridin-1-yl]-10-methyl-9-oxo-8,16-diazatricyclo[13.3.1.0^2,7]nonadeca-1(19),2,4,6,15,17-hexaen-5-yl]thiourea] were 7.32 and 8.10.
Turning to `COC(=O)Nc1ccc2c(c1)NC(=O)CCCCC[C@H](N1CCC(c3c(F)ccc(Cl)c3F)=CC1=O)c1cc-2ccn1` [Example 219, Methyl N-[(15S)-15-[4-(3-chloro-2,6-difluorophenyl)-6-oxo-1,2,3,6-tetrahydropyridin-1-yl]-9-oxo-8,17-diazatricyclo[14.3.1.0^2,7]icosa-1(20),2(7),3,5,16,18-hexaen-5-yl]carbamate, TFA salt], the pKi in assay [1] is 8.16; in assay [2], 8.18.
